The results in this text go back to ChEMBL document CHEMBL4308851, “Alkyl-guanidine Compounds as Potent Broad-Spectrum Antibacterial Agents: Chemical Library Extension and Biological Characterization” (J Med Chem, 2018).

Values after ≈ are worked out from the molar mass of the structure shown. Active and inactive are the calls of the source. No cut-off for these calls is given here.

Data set [1] can be described thus: in vitro. As to conditions: human, Caco-2.
Description: Efflux ratio of apparent permeability in human Caco2 cells at 10 uM after 120 mins by LC-MS/MS analysis
Data set [2] deals with Bacillus spizizenii. Put plainly: Antibacterial activity against Bacillus subtilis ATCC 6633 after 18 hrs by microdilution broth method. The class given is functional. As to conditions: ATCC 6633, 18 h.
Data set [3] has as its system Enterococcus faecalis. The experiment in a line: Antibacterial activity against Enterococcus faecalis ATCC 19433 after 18 hrs by microdilution broth method. The class given is functional. The conditions noted are these: ATCC 19433, 18 h.
Data set [4] relates to Staphylococcus aureus. Put plainly: Antibacterial activity against Staphylococcus aureus ATCC 25923 after 18 hrs by microdilution broth method. The class given is functional. As to conditions: ATCC 25923, 18 h.
In data set [5] the test system is Streptococcus pyogenes. Put plainly: Antibacterial activity against Streptococcus pyogenes ATCC 12344 after 18 hrs by microdilution broth method. Format: functional. As to conditions: ATCC 12344, 18 h.
Data set [6] has as its system Acinetobacter baumannii. The experiment in a line: Antibacterial activity against Acinetobacter baumannii ATCC 17978 after 18 hrs by microdilution broth method. The class given is functional.
In data set [7] the test system is Klebsiella pneumoniae. The experiment in a line: Antibacterial activity against Klebsiella pneumoniae ATCC […] after 18 hrs by microdilution broth method. The class given is functional.
In data set [8] the test system is Pseudomonas aeruginosa. The experiment in a line: Antibacterial activity against Pseudomonas aeruginosa ATCC 27853 after 18 hrs by microdilution broth method. The class given is functional.
For data set [9], the system named is Escherichia coli. Put plainly: Disruption of inner membrane integrity in Escherichia coli MG1655 assessed as induction of […] conversion at 256 ug/ml measured at 10 mins intervals for 1 hr. The class given is functional, organism-based. The conditions noted are these: K-12 substr. MG1655.
The subject of data set [10] is Pseudomonas aeruginosa. The experiment in a line: Disruption of inner membrane integrity in Pseudomonas aeruginosa PAO1 ATCC 15692 co-expressing pMP2200::PrrnB plasmid assessed as induction of OPNG conversion at 256 ug/ml measured at 10 mins intervals for 1 hr. Format: functional, organism-based.
Data set [11] deals with Acinetobacter baumannii. Put plainly: Disruption of inner membrane integrity in Acinetobacter baumannii ATCC 19606 co-expressing pMP2200::PrrnB plasmid assessed as induction of […] conversion at 256 ug/ml measured at 10 mins intervals for 1 hr. Format: functional, organism-based. As to conditions: ATCC 19606 = CIP 70.34 = JCM 6841.
The test system of data set [12] is Escherichia coli. Put plainly: Disruption of Escherichia coli MG1655 ATCC 47076 outer membrane integrity assessed as induction of NPN uptake after 30 mins by NPN fluorescence-based assay. Format: functional, organism-based. As to conditions: K-12 substr. MG1655 ATCC 47076.
For data set [13], the system named is Pseudomonas aeruginosa. The experiment in a line: Disruption of Pseudomonas aeruginosa PAO1 ATCC 15692 outer membrane integrity assessed as induction of NPN uptake after 30 mins by NPN fluorescence-based assay. Format: functional, organism-based.
Data set [14] concerns Acinetobacter baumannii. Put plainly: Disruption of Acinetobacter baumannii ATCC 19606 outer membrane integrity assessed as induction of NPN uptake after 30 mins by NPN fluorescence-based assay. The class given is functional, organism-based. As to conditions: ATCC 19606 = CIP 70.34 = JCM 6841.
The test system of data set [15] is Escherichia coli. Put plainly: Antibiofilm activity against Escherichia coli MG1655 ATCC 47076 at half MIC concentration after 24 hrs by crystal violet-based assay. Format: functional, organism-based. The conditions noted are these: K-12 substr. MG1655 ATCC 47076.
For data set [16], the system named is Pseudomonas aeruginosa. Put plainly: Antibiofilm activity against Pseudomonas aeruginosa PAO1 ATCC 15692 at half MIC concentration after 24 hrs by crystal violet-based assay. Format: functional, organism-based.
Data set [17] relates to Acinetobacter baumannii. The experiment in a line: Antibiofilm activity against Acinetobacter baumannii ATCC 19606 at half MIC concentration after 24 hrs by crystal violet-based assay. The class given is functional, organism-based. The conditions noted are these: ATCC 19606 = CIP 70.34 = JCM 6841.
For data set [18], the system named is Escherichia coli. Put plainly: Antibiofilm activity against Escherichia coli MG1655 ATCC 47076 assessed as effect on biofilm 3D structures at half MIC concentration after 24 hrs by AO-staining based confocal microscopy. As to conditions: K-12 substr. MG1655 ATCC 47076. Format: functional, organism-based.
Data set [19] has as its system Pseudomonas aeruginosa. The experiment in a line: Antibiofilm activity against Pseudomonas aeruginosa PAO1 ATCC 15692 assessed as effect on biofilm 3D structures at half MIC concentration after 24 hrs by AO-staining based confocal microscopy. Format: functional, organism-based.
Data set [20] relates to Acinetobacter baumannii. The experiment in a line: Antibiofilm activity against Acinetobacter baumannii ATCC 19606 assessed as effect on biofilm 3D structures at half MIC concentration after 24 hrs by AO-staining based confocal microscopy. The conditions noted are these: ATCC 19606 = CIP 70.34 = JCM 6841. Format: functional, organism-based.
A short description of data set [21]: Hemolytic activity against human erythrocytes assessed as induction of hemolysis at 64 ug/ml after 30 mins. Format: cell-based, Erythrocyte. As to conditions: read-out: Activity.
Data set [22] has as its system Escherichia coli. The experiment in a line: Antibacterial activity against Escherichia coli CCUG after 18 hrs by microdilution broth method.
Data set [23] is described as follows: Apparent permeability of the compound after 5 hrs by PAMPA. Format: ADME.
Data set [24] concerns Acinetobacter baumannii. Put plainly: Antibacterial activity against Acinetobacter baumannii isolate AC-54/97 after 18 hrs by microdilution broth method. The class given is functional. As to conditions: isolate AC-54/97, 18 h.
The test system of data set [25] is Burkholderia cepacia. The experiment in a line: Antibacterial activity against Burkholderia cepacia isolate SI-R2 after 18 hrs by microdilution broth method. The class given is functional. The conditions noted are these: isolate SI-R2, 18 h.
The test system of data set [26] is Enterobacter cloacae. Put plainly: Antibacterial activity against Enterobacter cloacae isolate VA-417/02 after 18 hrs by microdilution broth method. The class given is functional. The conditions noted are these: isolate VA-417/02, 18 h.
Data set [27] relates to Klebsiella pneumoniae. The experiment in a line: Antibacterial activity against Klebsiella pneumoniae isolate SI-081 after 18 hrs by microdilution broth method. The class given is functional. As to conditions: isolate SI-081, 18 h.
Data set [28] relates to Stenotrophomonas maltophilia. Put plainly: Antibacterial activity against Stenotrophomonas maltophilia isolate 634/08 after 18 hrs by microdilution broth method. The class given is functional. As to conditions: isolate 634/08, 18 h.
The test system of data set [29] is Escherichia coli. The experiment in a line: Antibacterial activity against Escherichia coli CCUG after 24 hrs by microdilution broth method. Format: functional.
Data set [30] concerns Escherichia coli. The experiment in a line: Bactericidal activity against Escherichia coli CCUG assessed as log reduction in CFU at 2 times MIC concentration after 1 hr by time kill assay. The class given is functional.

As to `CC(C)NCC(O)COc1cccc2ccccc12` (stereo unspecified) [PROPRANOLOL], in data set [1], the efflux ratio at 2 h, 10 µM came out at 0.4.
As to `N=C(N)NCCCCCCCCNCCCCCCCCNC(=N)NCC1CC1`, the MIC in [2] is 64 µg/mL (≈ 156 µM); in data set [3] it was greater than 64 µg/mL; in data set [4], greater than 64 µg/mL; in data set [5] it was greater than 64 µg/mL; in data set [6] (ATCC 17978, 18 h), greater than 64 µg/mL; in data set [7], greater than 64 µg/mL. In addition, the MIC in [8] (ATCC 27853, 18 h) is greater than 64 µg/mL; in data set [22], 64 µg/mL (≈ 156 µM). Besides, the outcome in data set [9], in data set [10], in data set [11], in data set [15], in data set [16] and in data set [17] was inactive. The outcome in data set [18], in [19] and in data set [20] was inactive. For the same molecule, the Activity entry in data set [12], in data set [13] and in data set [14] was “Dose-dependent effect” throughout. For the same molecule, in data set [21], the hemolysis at 0.5 h, 64 ug/ml was 0 to 7%.
As to `N=C(N)NCCCCCCCCN(CCCCCCCCNC(=N)N)C(=O)N(CCCCCCCCNC(=N)N)CCCCCCCCNC(=N)N`, the MIC in data set [2] stood at 32 µg/mL (≈ 43.4 µM); in data set [3], 2 µg/mL (≈ 2.71 µM); in data set [4] it was 2 µg/mL (≈ 2.71 µM); in data set [5], 1 µg/mL (≈ 1.36 µM); in data set [6] (ATCC 17978, 18 h), 16 µg/mL (≈ 21.7 µM); in data set [7], 32 µg/mL (≈ 43.4 µM). Further, the MIC in data set [8] (ATCC 27853, 18 h) was 32 µg/mL (≈ 43.4 µM); in data set [22] it was 4 µg/mL (≈ 5.43 µM). Further, the result in [9], in data set [10], in data set [11], in [15], in data set [16] and in [17] was inactive. The outcome in data set [18], in data set [19] and in [20] was inactive. Moreover, the Activity result in data set [12], in data set [13] and in data set [14] was “Dose-dependent effect” throughout. The hemolysis at 0.5 h, 64 ug/ml in data set [21] fell in the range of 0 to 7%.
As for `CO[C@H]1/C=C/O[C@@]2(C)Oc3c(C)c(O)c4c(O)c(c5c(nc6cc(C)ccn65)c4c3C2=O)NC(=O)/C(C)=C\C=C\[C@H](C)[C@H](O)[C@@H](C)[C@@H](O)[C@@H](C)[C@H](OC(C)=O)[C@@H]1C` [RIFAXIMIN], in data set [23], the Papp at 5 h came out at 0.06 ×10⁻⁶ cm/s.
`N=C(N)NCCCCCCCCCCN(CCCCCCCCCCNC(=N)NCC1CC1)C(=O)N(CCCCCCCCCCNC(=N)N)CCCCCCCCCCNC(=N)NCC1CC1`: the MIC in data set [2] was determined as 2 µg/mL (≈ 2.09 µM); in data set [3] it was 4 µg/mL (≈ 4.18 µM); in data set [4], 8 µg/mL (≈ 8.35 µM); in data set [5], 4 µg/mL (≈ 4.18 µM); in [6] (ATCC 17978, 18 h) it was 64 µg/mL (≈ 66.8 µM); in data set [7], 8 µg/mL (≈ 8.35 µM). Also, the MIC was 64 µg/mL (≈ 66.8 µM) in [8] (ATCC 27853, 18 h) and 16 µg/mL (≈ 16.7 µM) in [22]. Moreover, the outcome in data set [9], in data set [10], in [11], in data set [15], in [16] and in [17] was inactive. The outcome in data set [18], in [19] and in [20] was inactive. Further, the Activity entry in data set [12], in data set [13] and in data set [14] was “Dose-dependent effect” each time. Also, in data set [21], the hemolysis at 0.5 h, 64 ug/ml was in the range of 41 to 54%.
In the case of `N=C(NCCCCCCCCN(CCCCCCCCNC(=N)NCC1CC1)C(=O)N(CCCCCCCCNC(=N)NCC1CC1)CCCCCCCCNC(=N)NCC1CC1)NCC1CC1`, the MIC came to 8 µg/mL (≈ 8.39 µM) in data set [2]; 4 µg/mL (≈ 4.2 µM) in data set [3]; 16 µg/mL (≈ 16.8 µM) in [4]; 2 µg/mL (≈ 2.1 µM) in [5]; 8 µg/mL (≈ 8.39 µM) in data set [6] (ATCC 17978, 18 h); 4 µg/mL (≈ 4.2 µM) in [7]. For the same molecule, the MIC in [8] (ATCC 27853, 18 h) was 64 µg/mL (≈ 67.1 µM); in data set [24], 8 µg/mL (≈ 8.39 µM); in data set [25], 32 µg/mL (≈ 33.6 µM); in data set [26] it was 4 µg/mL (≈ 4.2 µM); in data set [27], 4 µg/mL (≈ 4.2 µM); in [28], 8 µg/mL (≈ 8.39 µM). For the same molecule, the MIC in data set [22] amounted to 16 µg/mL (≈ 16.8 µM). Further, the result in [9], in data set [10], in [11], in data set [15], in data set [16] and in data set [17] was inactive. For the same molecule, the result in data set [18], in data set [19] and in data set [20] was inactive. The Activity entry in [12], in [13] and in data set [14] was “Dose-dependent effect” each time. Moreover, the hemolysis at 0.5 h, 64 ug/ml in data set [21] lay within 0 to 7%.
In the case of COLISTIN, the MIC in data set [6] came out at 1 µg/mL; in data set [29], 0.5 µg/mL; in data set [7], 0.5 µg/mL; in [8], 0.5 µg/mL. Besides, the outcome in [30] was Active.
